pIC50: −log10 of the molar value.
Assays:
HDAC3 = target: T1, HDAC3 (Homo sapiens, UniProt O15379); experiment: Quantitative LC-MS proteomics of relative protein abundance in treated Kelly cells; assay type: cell-based; conditions: 1 μM compound, 5 hr, compared to DMSO control
T1 construct: endogenous in cells; host or cells: Kelly cells
Description: Kelly cells were treated with DMSO or 1 μM of compound 2 or 3 for 5 hr and cells were harvested by centrifugation at 4° C. before snap freezing in liquid nitrogen. Cell lysis was performed by the addition of Urea buffer (8 M Urea, 50 mM NaCl, 50 mM 4-(2-hydroxyethyl)-1-piperazineethanesulfonic acid (EPPS) pH 8.5, Protease and Phosphatase inhibitors) followed by manual homogenization by 20 passes through a 21-gauge (1.25 in. long) needle. Lysate was clarified by centrifugation and protein quantified using bradford (Bio-Rad) assay. 50 μg of protein for each sample was reduced, alkylated and precipitated using methanol/chloroform as described in Donovan et al., eLife 7: e38430 (2018). The resulting precipitated protein was resuspended in 4 M Urea, 50 mM HEPES pH 7.4, buffer for solubilization, followed by dilution to 1 M urea with the addition of 200 mM EPPS, pH 8. Proteins were digested for 12 hours at room temperature with LysC (1:50 ratio), followed by dilution to 0.5 M urea and a second digestion step was performed by addition of trypsin (1:50 ratio) for 6 hours at 37° C. […]
The diaPASEF raw file processing and controlling peptide and protein level false discovery rates, assembling proteins from peptides, and protein quantification from peptides was performed using library free analysis in DIA-NN 1.8 (Demichev et al., Nature Methods 17:41-44 (2020)). […]

VHL = target: T2, VHL (Homo sapiens, UniProt P40337); experiment: Cellular VHL engagement assay (BRD4BD2-GFP with mCherry reporter cells); assay type: cell-based; conditions: cells stably expressing BRD4BD2-GFP with mCherry reporter, co-treated with 250 nM BRD4 degrader, 5 h
T2 construct: Cells stably expressing the BRD4BD2-GFP with mCherry reporter were seeded; endogenous in cells; host or cells: unnamed cells stably expressing the BRD4BD2-GFP with mCherry reporter
Description: Cells stably expressing the BRD4BD2-GFP with mCherry reporter were seeded at a density of 1000-4000 cells/well in 384-well plates with 50 μL per well of FluoroBrite™ DMEM media (Thermo Fisher Scientific™, A18967) supplemented with 2% FBS a day before compound treatment. Compounds 1 and 2, and 250 nM 1 ((2S,4R)-1-(2R)-2-acetamido-3-[[6-[2-[(6S)-4-(4-chlorophenyl)-2,3,9-trimethyl-6H-thieno[3,2-f][1,2,4]triazolo[4,3-a][1,4]diazepin-6-yl]acetamido]hexyl]thio]-3-methylbutanoyl]-4-hydroxy-N-[4-(4-methylthiazol-5-yl)benzyl) pyrrolidinine-2-carboxamide) were dispensed using a D300e Digital Dispenser (HP), normalized to 0.5% DMSO, and incubated with the cells for 5 h. The assay plate was imaged immediately using an Acumen® High Content Imager (TTP Labtech) with 488 nm and 561 nm lasers in a 2 μm×1 μm grid per well format. The resulting images were analyzed using CellProfiler™.
A series of image analysis steps (an ‘image analysis pipeline’) was constructed. […] A background illumination function was calculated for both red and green channels of each well individually and subtracted to correct for illumination variations across the 384-well plate from various sources of error. […] The fraction of GFP-positive cells/mCherry-positive cells in each well was then calculated, and the green and red images were rescaled for visualization. […]

T1 sequence (O15379 whole entry): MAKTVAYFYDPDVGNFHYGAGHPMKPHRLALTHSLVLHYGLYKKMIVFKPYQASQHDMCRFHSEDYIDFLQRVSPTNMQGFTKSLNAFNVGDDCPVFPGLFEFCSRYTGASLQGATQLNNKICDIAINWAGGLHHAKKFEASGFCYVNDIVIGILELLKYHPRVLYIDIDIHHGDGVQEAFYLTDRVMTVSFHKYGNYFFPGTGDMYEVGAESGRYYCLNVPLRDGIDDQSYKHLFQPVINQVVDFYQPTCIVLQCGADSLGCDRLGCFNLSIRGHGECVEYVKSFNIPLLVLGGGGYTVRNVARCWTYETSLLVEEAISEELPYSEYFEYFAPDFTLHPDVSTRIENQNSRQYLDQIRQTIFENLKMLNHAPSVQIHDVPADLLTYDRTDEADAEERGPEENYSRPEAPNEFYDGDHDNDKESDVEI
T1 sequence (Q9Y618 389-480 partner limits assumed): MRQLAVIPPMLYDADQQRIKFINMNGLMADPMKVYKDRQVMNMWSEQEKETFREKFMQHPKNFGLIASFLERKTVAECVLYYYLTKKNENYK
T2 sequence (P40337 whole entry, species assumed): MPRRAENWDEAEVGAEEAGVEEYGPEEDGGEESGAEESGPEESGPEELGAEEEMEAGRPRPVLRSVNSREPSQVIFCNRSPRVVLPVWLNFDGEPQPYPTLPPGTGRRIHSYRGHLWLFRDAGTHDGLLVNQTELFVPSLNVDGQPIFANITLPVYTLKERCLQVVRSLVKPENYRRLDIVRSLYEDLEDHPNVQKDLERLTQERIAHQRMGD

pIC50 (VHL) | SMILES | relative change in HDAC3 protein abundance (degradation and selectivity) (HDAC3)
 | CCCNNC(=O)/C=C/c1ccc(CN(CCCCCOc2cc(-c3scnc3C)ccc2CNC(=O)[C@@H]2C[C@@H](O)CN2C(=O)[C@@H](NC(=O)C2(F)CC2)C(C)(C)C)CCc2c[nH]c3ccccc23)cc1 [Compound 3, (2S,4R)—N-(2-((5-((2-(1H-indol-3-yl)ethyl) (4-((E)-3-oxo-3-(2-propylhydrazineyl)prop-1-en-1-yl)benzyl)amino)pentyl)oxy)-4-(4-methylthiazol-5-yl)benzyl)-1-((S)-2-(1-fluorocyclopropane-1-carboxamido)-3,3-dimethylbutanoyl)-4-hydroxypyrrolidine-2-carboxamide] | significant and selective reduction in HDAC3 protein levels
5.17 | CCCNNC(=O)/C=C/c1ccc(CN(CCOCCOCCC(=O)N[C@H](C(=O)N2C[C@H](O)C[C@H]2C(=O)N[C@@H](C)c2ccc(-c3scnc3C)cc2)C(C)(C)C)CCc2c[nH]c3ccccc23)cc1 [Compound 2, (2S,4R)-1-((S)-14-(tert-butyl)-1-(1H-indol-3-yl)-12-oxo-3-(4-((E)-3-oxo-3-(2-propylhydrazineyl)prop-1-en-1-yl)benzyl)-6,9-dioxa-3,13-diazapentadecan-15-oyl)-4-hydroxy-N—((S)-1-(4-(4-methylthiazol-5-yl)phenyl)ethyl) pyrrolidine-2-carboxamide] | significant and selective reduction in HDAC3 protein levels
4.77 | CCCNNC(=O)/C=C/c1ccc(CN(CCOCCC(=O)N[C@H](C(=O)N2C[C@H](O)C[C@H]2C(=O)N[C@@H](C)c2ccc(-c3scnc3C)cc2)C(C)(C)C)CCc2c[nH]c3ccccc23)cc1 [Compound 1, (2S,4R)-1-((S)-2-(3-(2-((2-(1H-indol-3-yl)ethyl) (4-((E)-3-oxo-3-(2-propylhydrazineyl)prop-1-en-1-yl)benzyl)amino)ethoxy)propanamido)-3,3-dimethylbutanoyl)-4-hydroxy-N—((S)-1-(4-(4-methylthiazol-5-yl)phenyl)ethyl) pyrrolidine-2-carboxamide] | 

— US20260256920A1, “SELECTIVE HISTONE DEACETYLASE 3 (HDAC3) DERADERS AND METHODS OF USE THEREOF” (Dana-Farber Cancer Institute, Inc., priority 2022, published 2026)
